Test system: T1, Cohnella sp. A01 laccase
T1 construct: gene multicopper oxidase; recombinant in E. coli BL21, pET-26b(+) NcoI/XhoI, His-tagged, Ni-Sepharose purified
Assay: oxidation followed at […] nm, Michaelis-Menten fit
Type: biochemical
Conditions: 0.3-2.5 mM DMP; phosphate buffer; assay pH 8 and 90 °C (optimum; not restated for the kinetics)

Km: 686 µM
Compound: COc1cccc(OC)c1O [2,6-dimethoxyphenol]

From article PMC6819783, “Cohnella sp. A01 laccase: thermostable, detergent resistant, anti-environmental and industrial pollutants enzyme” (Heliyon, 2019)
